This is an account of results in publication PMC11006142, “A divergent protein kinase A regulatory subunit essential for morphogenesis of the human pathogen Leishmania” (PLOS Pathogens, 2024).

In experiment [1] the target is T1, PKAR3 (protein kinase A regulatory subunit 3) (Leishmania donovani, UniProt A0A3S7X836).
T1 construct: gene LdCL_340034800
Nature of the experiment: isothermal titration calorimetry (ITC), one-site model. It counts as binding. (ITC needs no label: the signal is the heat of the interaction.)

Experiment [2] deals with subpellicular microtubules (SPMT) of L. donovani promastigotes, detected as β-tubulin (L. donovani (endogenous in promastigotes)). The experiment in a line: FRET or BRET; fixed L. donovani promastigotes labelled with primary antibodies and secondary antibodies with Alexa Fluor 568 (donor) and 647 (acceptor); corrected acceptor FRET (Youvan), confocal microscopy. (In general: Bioluminescence resonance energy transfer reports proximity on the nanometre scale.)

A word on the Kd: it is the constant that tells how readily two partners part at equilibrium. Read a low Kd as higher affinity.

T1 sequence (A0A3S7X836 entry or part of it): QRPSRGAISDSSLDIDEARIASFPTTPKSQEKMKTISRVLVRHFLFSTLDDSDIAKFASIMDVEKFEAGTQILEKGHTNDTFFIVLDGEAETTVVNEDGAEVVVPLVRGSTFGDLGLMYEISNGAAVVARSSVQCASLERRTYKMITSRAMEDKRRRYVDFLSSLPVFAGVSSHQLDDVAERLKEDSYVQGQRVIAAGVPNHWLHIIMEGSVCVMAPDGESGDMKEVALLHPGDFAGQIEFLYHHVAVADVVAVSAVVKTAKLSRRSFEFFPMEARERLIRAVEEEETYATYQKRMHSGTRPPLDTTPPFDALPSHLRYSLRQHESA

Regarding `N#Cc1cn([C@@H]2O[C@H](CO)[C@@H](O)[C@H]2O)c2ncnc(N)c12` [Toyo, Toyocamycin], binding in experiment [1] was put at a Kd of 3.8 nM. For the compound “L. donovani PKAR3 lacking the N-terminal 90 amino acids (domain or fragment)”, the decrease of FRET-positive pixels per cell against PKAR3FL in experiment [2] was found to be 30%. `N#Cc1cn([C@@H]2O[C@H](CO)[C@@H](O)[C@H]2O)c2ncnc(O)c12` [7-CN-7-C-Ino, 7-cyano-7-deaza-inosine] yielded a Kd in experiment [1] of 1 nM.
